Source: publication PMC10086185, “Synthesis, radiolabeling, and evaluation of a (4-quinolinoyl)glycyl-2-cyanopyrrolidine analogue for fibroblast activation protein (FAP) PET imaging” (Frontiers in Bioengineering and Biotechnology, 2023)
“And” between values parts separate entries of the source, which are not always exact repeats. Equal values may be shown once.

Experiments:
[1] = Biodistribution in normal Kunming mice; type: in vivo; settings: for Biodistribution, Intestine, single mice: individual animals; for Biodistribution, Blood / Biodistribution, Bone / Biodistribution, Brain / Biodistribution, Heart / Biodistribution, Intestine / Biodistribution, Kidney / Biodistribution, Lungs / Biodistribution, Muscle / Biodistribution, Spleen / Biodistribution, Stomach / Biodistribution, Liver: mean (SD), n = 5
Description: Normal Kunming mice (4 weeks, 20–25 g) were injected intravenously with about 740 KBq of [^18F]3 in 100 µL of PBS saline solution via the tail vein. All subjects were grouped by time points (n = 5). At designated time points, all subjects were sacrificed, and the organs and tissues were harvested, weighted, and counted in a PerkinElmer Wizard 2470 gamma counter. All the counts obtained from the gamma counter were decay-corrected and used to calculate the tissue biodistribution data, which is presented as the percentage of injected dose per gram of organ (%ID/g).

[2] = Micro-PET/CT imaging, organ SUV in tumor-bearing nude mice; type: in vivo, BALB/c nude mice
Description: (§1) BALB/c nude mice used in this study were obtained from the Animal Center of Sichuan University. Tumor-bearing mouse models were established by the subcutaneous injection of 100 µL of PBS suspension containing approximately 1*10^6 tumor cells to the body side of the subjects. The tumor volume was monitored every day, and the tumor-bearing mice were ready for imaging once the tumor volume reached 0.5 mm^3 (tumor volume can be calculated by this equation: Volume = 0.5 * long tail * short tail *short tail). Micro-PET/CT imaging studies were performed on the IRIS Micro-PET/CT system (Inviscan SAS, France). Tumor-bearing mice were injected with approximately 11.2–14.8 MBq of [^18F]3 (200 µL) via the tail vein under anaesthetization by isoflurane. Static PET images were obtained at designated time points and were reconstructed with a 3D-OSEM algorithm using a Monte Carlo-based accurate detector model. Then, 170 sec-CT acquisition was conducted with 50 kV, 1 mA X-ray output for attenuation correction and anatomical orientation. ROIs (regions of interest) were drawn on the lung, kidney, liver, and tumor by OsiriX software. SUV (standardized uptake value) of the ROIs was directly obtained from OsiriX for each subject according to this formula: SUV = Voxal value (Bq/mL) * Body weight (kg)/(Decay corrected Dose (Bq) * 1,000 (g/kg)).
(§2) BALB/c nude mice used in this study were obtained from the Animal Center of Sichuan university. Tumor-bearing mice model were established by the subcutaneous injection of 100 µL of PBS suspension containing approximately 1*10^6 tumor cells to the body side of the subjects. The tumor volume was monitored every day and the tumor-bearing mice were ready for imaging once the tumor volume reach 0.5 mm^3 (tumor volume can be calculated by this equation: Volume = 0.5 * long tail * short tail *short tail). Micro-PET/CT imaging studies were performed on the IRIS Micro-PET/CT system (Inviscan SAS, France). Tumor-bearing mice were injected with approximately 11.2-14.8 MBq of [^18F]3 (200 µL) via tail vein under anaesthetization by isoflurane. Static PET images were obtained at designated time points and were reconstructed with a 3D-OSEM algorithm using a Monte-Carlo based accurate detector model. A 170 sec-CT acquisition was conducted with 50 kV, 1 mA X-ray output for attenuation correction and anatomical orientation. ROIs (regions of interest) were drawn on lung, kidney, liver and tumor by Osirix software. SUV (standardized uptake value) of the ROIs was directly obtained from Osirix for each subject according to this formula: SUV = Voxal value (Bq/mL) * Body weight (kg)/(Decay corrected Dose (Bq) * 1000 (g/kg)).

[3] = Lipid/water partition coefficient in octanol/PBS (log D 7.4); type: physicochemical; settings: pH 7.4
Description: The lipid/water partition coefficient of [^18F]3 was tested in octanol/PBS mixtures, following the published literature reports ([Li et al., 2019]) and presented as log D 7.4 values. Briefly, a small volume of [^18F]3 was added into an octanol/water mixture, and then, a series of diluted octanol/PBS mixtures was obtained, as described in the literature. The CPM in octanol and the PBS layer was obtained in a Wizard 2470 gamma counter (PerkinElmer) and was used to calculate the lipid/PBS partition coefficient. Several continuous and stable partition coefficient values were selected to calculate the log D 7.4 values.

[4] = system: A549-FAPI xenograft tumors; test: Micro-PET/CT imaging, A549-FAPI xenograft tumors; type: in vivo, BALB/c nude mice
Description: as §1, §2

[5] = A549-FAPI tumors, pre-injection of compound 3, 2 mg/kg

- Biodistribution, Blood ([1]; 5 min post-injection): 12.96 ± 2.03 %ID/g
- Biodistribution, Bone ([1]; 5 min post-injection): 1.86 ± 0.54 %ID/g
- Biodistribution, Brain ([1]; 5 min post-injection): 0.80 ± 0.29 %ID/g
- Biodistribution, Heart ([1]; 5 min post-injection): 11.00 ± 1.64 %ID/g
- Biodistribution, Intestine ([1]; 5 min post-injection): 13.99 ± 4.60 %ID/g
- Biodistribution, Kidney ([1]; 5 min post-injection): 22.59 ± 5.74 %ID/g
- Biodistribution, Lungs ([1]; 5 min post-injection): 11.36 ± 1.89 %ID/g
- Biodistribution, Muscle ([1]; 5 min post-injection): 8.02 ± 1.34 %ID/g
- Biodistribution, Spleen ([1]; 5 min post-injection): 8.71 ± 1.50 %ID/g
- Biodistribution, Stomach ([1]; 5 min post-injection): 7.82 ± 0.86 %ID/g
- Biodistribution, Blood ([1]; 15 min post-injection): 6.90 ± 1.13 %ID/g
- Biodistribution, Bone ([1]; 15 min post-injection): 1.59 ± 0.51 %ID/g
- Biodistribution, Brain ([1]; 15 min post-injection): 0.61 ± 0.25 %ID/g
- Biodistribution, Heart ([1]; 15 min post-injection): 5.71 ± 1.12 %ID/g
- Biodistribution, Intestine ([1]; 15 min post-injection): 20.10 ± 6.14 %ID/g
- Biodistribution, Kidney ([1]; 15 min post-injection): 12.72 ± 3.88 %ID/g
- Biodistribution, Liver ([1]; 15 min post-injection): 27.82 ± 6.35 %ID/g
- Biodistribution, Lungs ([1]; 15 min post-injection): 6.84 ± 1.43 %ID/g
- Biodistribution, Muscle ([1]; 15 min post-injection): 5.32 ± 1.02 %ID/g
- Biodistribution, Spleen ([1]; 15 min post-injection): 4.56 ± 1.09 %ID/g
- Biodistribution, Stomach ([1]; 15 min post-injection): 6.98 ± 1.36 %ID/g
- Biodistribution, Blood ([1]; 30 min post-injection): 4.35 ± 0.66 %ID/g
- Biodistribution, Bone ([1]; 30 min post-injection): 1.80 ± 0.60 %ID/g
- Biodistribution, Brain ([1]; 30 min post-injection): 0.35 ± 0.10 %ID/g
- Biodistribution, Heart ([1]; 30 min post-injection): 3.53 ± 0.33 %ID/g
- Biodistribution, Intestine ([1]; 30 min post-injection): 33.51 ± 12.05 %ID/g
- Biodistribution, Kidney ([1]; 30 min post-injection): 8.48 ± 1.34 %ID/g
- Biodistribution, Liver ([1]; 30 min post-injection): 15.34 ± 2.67 %ID/g
- Biodistribution, Lungs ([1]; 30 min post-injection): 5.15 ± 1.59 %ID/g
- Biodistribution, Spleen ([1]; 30 min post-injection): 2.95 ± 0.49 %ID/g
- Biodistribution, Stomach ([1]; 30 min post-injection): 5.50 ± 1.26 %ID/g
- Biodistribution, Blood ([1]; 60 min post-injection): 2.61 ± 0.18 %ID/g
- Biodistribution, Bone ([1]; 60 min post-injection): 1.91 ± 0.33 %ID/g
- Biodistribution, Brain ([1]; 60 min post-injection): 0.20 ± 0.04 %ID/g
- Biodistribution, Heart ([1]; 60 min post-injection): 1.91 ± 0.24 %ID/g
- Biodistribution, Intestine ([1]; 60 min post-injection): 19.33 ± 7.66 %ID/g
- Biodistribution, Kidney ([1]; 60 min post-injection): 5.07 ± 0.81 %ID/g
- Biodistribution, Liver ([1]; 60 min post-injection): 9.03 ± 3.62 %ID/g
- Biodistribution, Lungs ([1]; 60 min post-injection): 2.35 ± 1.07 %ID/g
- Biodistribution, Muscle ([1]; 60 min post-injection): 2.60 ± 1.20 %ID/g
- Biodistribution, Spleen ([1]; 60 min post-injection): 1.46 ± 0.24 %ID/g
- Biodistribution, Stomach ([1]; 60 min post-injection): 2.98 ± 1.22 %ID/g
- Biodistribution, Blood ([1]; 120 min post-injection): 1.29 ± 0.28 %ID/g
- Biodistribution, Bone ([1]; 120 min post-injection): 1.65 ± 0.81 %ID/g
- Biodistribution, Brain ([1]; 120 min post-injection): 0.08 ± 0.02 %ID/g
- Biodistribution, Heart ([1]; 120 min post-injection): 0.93 ± 0.20 %ID/g
- Biodistribution, Intestine ([1]; 120 min post-injection): 4.75 ± 2.73 %ID/g
- Biodistribution, Kidney ([1]; 120 min post-injection): 2.27 ± 0.93 %ID/g
- Biodistribution, Liver ([1]; 120 min post-injection): 5.39 ± 3.36 %ID/g
- Biodistribution, Lungs ([1]; 120 min post-injection): 1.87 ± 0.49 %ID/g
- Biodistribution, Muscle ([1]; 120 min post-injection): 1.51 ± 0.48 %ID/g
- Biodistribution, Spleen ([1]; 120 min post-injection): 0.85 ± 0.13 %ID/g
- Biodistribution, Stomach ([1]; 120 min post-injection): 1.63 ± 0.51 %ID/g
- Biodistribution, Blood ([1]; 240 min post-injection): 0.75 ± 0.19 %ID/g
- Biodistribution, Bone ([1]; 240 min post-injection): 1.33 ± 0.30 %ID/g
- Biodistribution, Brain ([1]; 240 min post-injection): 0.04 ± 0.02 %ID/g
- Biodistribution, Heart ([1]; 240 min post-injection): 0.39 ± 0.11 %ID/g
- Biodistribution, Intestine ([1]; 240 min post-injection): 4.84 ± 2.23 %ID/g
- Biodistribution, Kidney ([1]; 240 min post-injection): 0.82 ± 0.23 %ID/g
- Biodistribution, Liver ([1]; 240 min post-injection): 2.47 ± 1.47 %ID/g
- Biodistribution, Lungs ([1]; 240 min post-injection): 0.69 ± 0.19 %ID/g
- Biodistribution, Muscle ([1]; 240 min post-injection): 0.76 ± 0.23 %ID/g
- Biodistribution, Spleen ([1]; 240 min post-injection): 0.38 ± 0.13 %ID/g
- Biodistribution, Stomach ([1]; 240 min post-injection): 1.64 ± 0.69 %ID/g
- Activity in the bone ([1]; all time points): lower than 2 %ID/g
- Radioactivity in the brain ([1]; all time points): lower than 1 %ID/g
- SUV in the liver ([2]; 15 min p.i.): about 5.0
- SUV in the kidney ([2]; 90 min p.i.): 3.0
- SUV in the bladder ([2]; end of the scan): greater than 8.0
- SUV in the liver ([2]; end of the scan (90 min)): 2.0
- SUV in the kidney ([2]; initial): about 5.0
- SUV in the brain ([2]; mouse, in vivo): less than 0.3
- logD [3]: 1.11
Compound: N#C[C@@H]1CC(F)(F)CN1C(=O)CNC(=O)c1ccnc2ccc([18F])cc12 [[^18F]3]
- Biodistribution, Intestine, single mice ([1]; 5 min post-injection (time inferred from the means)): 10.34 %ID/g and 11.05 %ID/g and 10.3 %ID/g and 22.06 %ID/g and 16.22 %ID/g
- Biodistribution, Intestine, single mice ([1]; 15 min post-injection (time inferred from the means)): 27.17 %ID/g and 17.59 %ID/g and 22.86 %ID/g and 23.43 %ID/g
- Biodistribution, Intestine, single mice ([1]; 30 min post-injection (time inferred from the means)): 31.76 %ID/g and 22.3 %ID/g and 32.3 %ID/g and 24.86 %ID/g and 56.33 %ID/g
- Biodistribution, Intestine, single mice ([1]; 60 min post-injection (time inferred from the means)): 31 %ID/g and 24.55 %ID/g and 17.85 %ID/g and 13.74 %ID/g and 9.5 %ID/g
- Biodistribution, Intestine, single mice ([1]; 90 min post-injection (time inferred from the means)): 6.25 %ID/g and 12.96 %ID/g and 10.39 %ID/g and 11.77 %ID/g and 4.91 %ID/g
- Biodistribution, Intestine, single mice ([1]; 120 min post-injection (time inferred from the means)): 6.06 %ID/g and 1.76 %ID/g and 4.52 %ID/g and 2.19 %ID/g and 9.23 %ID/g
- Biodistribution, Intestine, single mice ([1]; 240 min post-injection (time inferred from the means)): 7.72 %ID/g and 2.48 %ID/g and 5.26 %ID/g and 2.09 %ID/g and 6.66 %ID/g
- Tumor-to-muscle (T/M) ratio ([4]; A549-FAPI tumors, 90 min p.i.): 4.34
- Tumor SUV, blocking group [4, 5]: lower than 0.2
- Tumor-to-muscle (T/M) ratio, blocking group [4, 5]: less than 2.0
- Tumor SUV ([4]; A549-FAPI xenografted tumors, within 90 min): greater than 0.4
